The source of these data is US20020128185A1, “Pharmaceutical compounds” (priority 1998, published 2002).

The structures appear in SMILES notation. Entries after “also recorded” stand apart in the source; their conditions may differ.

By IC50 is commonly meant the midpoint of a concentration-inhibition curve. Low readings indicate higher potency, high ones lower potency. As a reminder, the melting point is the temperature, or range, at which the solid turns liquid.

The subject of data set [1] is SKVLB1 cells (vinblastine-resistant, P-glycoprotein-overexpressing sub-line of SKOV3). Put plainly: Inhibition of growth of SKVLB1 cells. The settings on record: Homo sapiens. It is filed as cell-based. Here is the method: The Jurkat T cell leukemia line and A-10 rat aortic smooth muscle cells are obtained from the American Type Culture Collection and are cultured in BME containing 10% FBS and 50 μg/mL gentamycin sulfate. […] Both cell lines are maintained in BME containing 10% FBS and 50 μg/mL gentamycin sulfate.
Cell proliferation assays are performed as described by Skehan et al. For Jurkat cells, cultures are treated with the indicated drugs as described in Skehan and total cell numbers are determined by counting the cells in a hemacytometer. The percentage of cells in mitosis are determined by staining with 0.4% Giemsa in PBS followed by rapid washes with PBS. At least 1000 cells per treatment are scored for the presence of mitotic figures and the mitotic index is calculated as the ration of the cells with mitotic figures to the total number of cells counted.
SKVLB1 cells are resistant to natural product anticancer drugs because of their over expression of P-glycoprotein.

Data set [2] has as its system A-10 rat aortic smooth muscle cells. Put plainly: Immunofluorescence assays of the cytoskeleton in A-10 cells. The class given is cell-based. The settings on record: for Microtubule repolymerization after removal of drug: 100 nM for 24 hr. Here is the method: A-10 cells are grown to near-confluency on glass coverslips in BME/10% FBS. Compounds in PBS are added to the indicated final concentrations and cells are incubated for an additional 24 hours. For the staining of microtubules and intermediate filaments, the cells are fixed with cold methanol and incubated with PBS containing 10% calf serum to block nonspecific binding sites. Cells are then incubated at 37° C for 60 min. with either monoclonal anti-S-tubulin or with monoclonal anti-vimentin at dilutions recommended by the manufacturer. Bound primary antibodies are subsequently visualized by a 45-minute incubation with fluorescein-conjugated rabbit antimouse IgG. The coverslips are mounted on microscope slides and the fluorescence patterns are examined and photographed using a Zeiss Photomicroscope Ill equipped with epifluorescence optics for fluorescein. […] PBS containing 100 nM TRITC-phalloidin is then added and the mixture is allowed to incubate for 45 min. at 37° C. The cells are washed rapidly with PBS before the coverslips are mounted and immediately photographed as described above.
After 24 hours, microtubules and vimentin intermediate filaments are visualized by indirect immunofluorescence and microfilaments are stained using TRITC-phalloidin. The morphological effects of each drug is examined.
After 24 hours, microtubule organization is examined by immunofluorescence as described above.
The cells are then washed and incubated in drug-free medium for periods of 1 hour or 24 hours. […] Cells are visualized for microtubule state after treatment with a cryptophycin compound of this invention at either 1 hour or 24 hours after removal of the cryptophycin compounds.

Regarding `CC(=O)O[C@H]1C(=O)[C@@]2(C)[C@H]([C@H](OC(=O)c3ccccc3)[C@]3(O)C[C@H](OC(=O)[C@H](O)[C@@H](NC(=O)c4ccccc4)c4ccccc4)C(C)=C1C3(C)C)[C@]1(OC(C)=O)CO[C@@H]1C[C@@H]2O` [Taxol, taxol], in data set [1], half-maximal inhibition (IC50) required 8 µM. In addition, the “Microtubule organization in taxol-treated cells” value in data set [2] (10 μM taxol, compared with control cells) is “extensively bundled”. The “Effect of taxol pretreatment on vinblastine-induced microtubule depolymerization” value in data set [2] (3 hours 10 μM taxol before 100 nM vinblastine, 24 hours) is listed as “prevented microtubule depolymerization in response to vinblastine”.
Regarding `COc1ccc(C[C@H]2NC(=O)/C=C/C[C@@H]([C@H](C)/C=C/c3ccccc3)OC(=O)[C@H](CC(C)C)NC(=O)CC(CC(C)C)NC2=O)cc1Cl` (stereo partly shown), the melting point fell in the range of 258 to 260 °C.
Regarding `CC[C@]1(O)C[C@@H]2CN(CCc3c([nH]c4ccccc34)[C@@](C(=O)OC)(c3cc4c(cc3OC)N(C)[C@H]3[C@@](O)(C(=O)OC)[C@H](OC(C)=O)[C@]5(CC)C=CCN6CC[C@]43[C@@H]65)C2)C1` [Vinblastine, vinblastine], the half-inhibitory concentration (IC50) in data set [1] is 4.2 µM. Moreover, the figures for the “Microtubule repolymerization after removal of drug” value in data set [2] (then 1 hour in drug-free medium) and in data set [2] (then 24 hours in drug-free medium) were “significant levels of microtubules after 1 hour” and “complete morphological recovery by 24 hour”, respectively. In addition, in data set [2] (100 nM vinblastine, 24 hours, not pretreated), the Effect on microtubules entry is given as “complete depolymerization of microtubules; also recorded: complete microtubule depolymerization”.
On to `C=C1[C@@H](C)[C@H]2[C@H](Cc3ccccc3)NC(=O)[C@]23OC(=O)/C=C/[C@H](O)CCC[C@@H](C)C/C=C/[C@H]3[C@@H]1O` [Cytochalasin B, cytochalasin B], for which the “Effect on distribution of microtubules and intermediate filaments” value in data set [2] (2 μM cytochalasin B, 24 hours) is given as “did not affect the distribution of either microtubules or intermediate filaments”. In addition, in data set [2] (2 μM cytochalasin B, 24 hours, TRITC-phalloidin staining), the Effect on microfilaments entry is reported as “complete depolymerization of microfilaments”.
